Laboratory results reported in patent publication US4356322A, “Phenoxyalkanolamine derivatives” (Veb Arzneimittelwerk Dresden, priority 1977, dated 1982).
Where a name gives a salt, the structure may show the parent alone. Read-outs that look alike come from different tables or passages of the source.

Key:
circulation of dogs = experiment: effects on the circulation of dogs under continual intravenous infusion; assay type: in vivo, dog; conditions: for ED30: Canis lupus familiaris, iv; for effective period / heart's oxygen demand / peripheral cardiovascular system: in vivo; for contractility, cardiac frequency and cardiac output: increases occur at approximately parallel rates
Excerpt: Column 1: Infusion rate in μg/kg/min
Column 2: Cumulative dose in μg/kg
Rate of pressure increase in the left ventricle (dp/dt/max) in mm Hg·s^-1
ED30 =dosage for 30% increase in inotropy, in μg/kg
Max=maximum increase in percent in inotropy at dose μg/kg
Column 4: Cardiac frequency in n·min^-1
ED30 =dosage for 30% increase in frequency, in μg/kg
Max=maximum increase in percent in frequency at dose μg/kg
Column 5: Cardiac output ml·min^-1 ·kg^-1
Column 6: Diastolic blood pressure in mm Hg
Column 7: Number of animals used in the experiments
X=median values (initial value and after cumulative dose)
%=change in percent of initial value
In these experiments, the compounds were used in the form of hydrochlorides.

cat = experiment: β-mimetic effect on contractility and cardiac frequency in anesthetized cat; assay type: in vivo; conditions: HCl salt
β-receptor = conditions: M. J. Davey, Arch. Pharmacol. 179 (1973); cited from earlier work
in vivo = conditions: rat, iv
rats = conditions: rat, intravenous, acute; HCl salt
[1] = dog, i.v. infusion, read-out: ED30, dosage for 30% increase in frequency
[2] = dog, i.v. infusion, read-out: ED30, dosage for 30% increase in inotropy
[3] = dog, 12,5 μg/kg/min, cumulative dose --
[4] = dog, at 50 μg/kg, i.v. infusion
[5] = dog, 1,00 μg/kg/min, cumulative 20,0 μg/kg
[6] = dog, 1,00 μg/kg/min, cumulative 10,0 μg/kg
[7] = dog, at 30 μg/kg, i.v. infusion
[8] = dog, 0,25 μg/kg/min, cumulative 15,0 μg/kg
[9] = dog, at 15 μg/kg, i.v. infusion
[10] = dog, 10,0 μg/kg/min, cumulative 200 μg/kg
[11] = dog, 0,125 μg/kg/min, cumulative dose --
[12] = dog, at 0,1875 (μg/kg), i.v. infusion
[13] = dog, 1,00 μg/kg/min, cumulative 30,0 μg/kg

CC(CCc1ccc(O)cc1)NCCc1ccc(O)c(O)c1 (stereo not drawn) [Dobutamine, reference compound]
ED30 (circulation of dogs; [1]): 23 µg/kg
ED30 (circulation of dogs; [2]): 7.5 µg/kg
frequency and cardiovascular dilation (circulation of dogs; at higher dosages): strong increases in frequency and in cardiovascular dilation
Cardiac frequency, change in percent of initial value (circulation of dogs; [3]): +8%
Cardiac frequency, median initial value - value after dose (circulation of dogs; [3]): 78-84 n.min^-1
Cardiac output, change in percent of initial value (circulation of dogs; [3]): +23%
Cardiac output, median initial value - value after dose (circulation of dogs; [3]): 152 to 186 mL/min/kg
Diastolic blood pressure, change in percent of initial value (circulation of dogs; [3]): +3%
Diastolic blood pressure, median initial value - value after dose (circulation of dogs; [3]): 101-103 mm Hg
dp/dt max, change in percent of initial value (circulation of dogs; [3]): +75%
dp/dt max, median initial value - value after dose (circulation of dogs; [3]): 3088-5410 mm Hg.s^-1
Max, maximum increase in percent in frequency (circulation of dogs; [4]): +56%
Max, maximum increase in percent in inotropy (circulation of dogs; [4]): +191%
effective period (circulation of dogs; dog): equal to the rather brief effective period of isoprenaline
inotropy (circulation of dogs; in words): strong rise in inotropy

Cc1ccccc1OCC(O)CNCCOc1ccc(C(N)=O)cc1 (stereo not drawn) [Tolamolol, 1-[2-(4-carbamoylphenoxy)-ethylamino]-3-(2-methylphenoxy)-propan-2-ol, reference compound]
HR, percent change from initial value in heart frequency (cat; D 0.10 mg/kg i.v.): -10%
dp/dt max, percent change from initial value, left ventricle (cat; D 0.10 mg/kg i.v.): -17%
intrinsic sympathicomimetic activity (β-receptor): does not exhibit an "intrinsic sympathicomimetic activity"
β-blocking efficacy compared with propranolol (β-receptor): about equal to that of propranolol
β-receptor blocking selectivity (β-receptor): cardioselective β-receptor blocking agent
LD50 (in vivo): 133000 µg/kg

CC(C)NCC(O)COc1cccc2ccccc12 (stereo not drawn) [Propranolol, reference compound]
HR, percent change from initial value in heart frequency (cat; D 0.10 mg/kg i.v.): -8%
dp/dt max, percent change from initial value, left ventricle (cat; D 0.10 mg/kg i.v.): -8%

Nc1cccc(NCCNCC(O)COc2ccccc2)c1 (stereo not drawn) [Example 17, 3-[β-(3-aminophenylamino)-ethyl]-amino-2-hydroxy-1-phenoxypropane trihydrochloride]
HR, percent change from initial value in heart frequency (cat; D 0.01 mg/kg i.v.): +19%
dp/dt max, percent change from initial value, left ventricle (cat; D 0.01 mg/kg i.v.): +84%
ED30 (circulation of dogs; [1]): 16 µg/kg
ED30 (circulation of dogs; [2]): 5.5 µg/kg
Cardiac frequency, change in percent of initial value (circulation of dogs; [5]): +33%
Cardiac frequency, median initial value - value after cumulative dose (circulation of dogs; [5]): 85-113 n.min^-1
Cardiac output, change in percent of initial value (circulation of dogs; [5]): +44%
Cardiac output, median initial value - value after cumulative dose (circulation of dogs; [5]): 138 to 198 mL/min/kg
Diastolic blood pressure, change in percent of initial value (circulation of dogs; [5]): +1%
Diastolic blood pressure, median initial value - value after cumulative dose (circulation of dogs; [5]): 103-104 mm Hg
dp/dt max, change in percent of initial value (circulation of dogs; [5]): +84%
dp/dt max, median initial value - value after cumulative dose (circulation of dogs; [5]): 3071-5663 mm Hg.s^-1
Max, maximum increase in percent in inotropy (circulation of dogs; dog, at 40 μg/kg, i.v. infusion): +93%
Max, maximum increase in percent in frequency (circulation of dogs; [4]): +49%
LD50 (in vivo): 66000 µg/kg

O=[N+]([O-])c1cccc(NCCNCC(O)COc2ccccc2)c1 (stereo not drawn) [Example 16, 3-[β-(3-nitrophenylamino)-ethyl]-amino-2-hydroxy-1-phenoxypropane]
HR, percent change from initial value in heart frequency (cat; D 0.01 mg/kg i.v.): +13%
dp/dt max, percent change from initial value, left ventricle (cat; D 0.01 mg/kg i.v.): +57%
ED30 (circulation of dogs; [1]): 20 µg/kg
ED30 (circulation of dogs; [2]): 5 µg/kg
Cardiac frequency, change in percent of initial value (circulation of dogs; [6]): +13%
Cardiac frequency, median initial value - value after cumulative dose (circulation of dogs; [6]): 83-94 n.min^-1
Cardiac output, change in percent of initial value (circulation of dogs; [6]): +32%
Cardiac output, median initial value - value after cumulative dose (circulation of dogs; [6]): 129 to 169 mL/min/kg
dp/dt max, change in percent of initial value (circulation of dogs; [6]): +71%
dp/dt max, median initial value - value after cumulative dose (circulation of dogs; [6]): 3068-5230 mm Hg.s^-1
Max, maximum increase in percent in frequency (circulation of dogs; [7]): +39%
Max, maximum increase in percent in inotropy (circulation of dogs; [7]): +100%
LD50 (in vivo): 44000 µg/kg

Cc1cccc(C)c1NCCNCC(O)COc1ccccc1 (stereo not drawn) [Example 7, 3-[β-(2,6-dimethylphenylamino)-ethyl]-amino-2-hydroxy-1-phenoxypropane hydrochloride]
HR, percent change from initial value in heart frequency (cat; D 0.01 mg/kg i.v.): +14%
dp/dt max, percent change from initial value, left ventricle (cat; D 0.01 mg/kg i.v.): +104%
ED30 (circulation of dogs; [1]): 15 µg/kg
ED30 (circulation of dogs; [2]): 5 µg/kg
Cardiac frequency, change in percent of initial value (circulation of dogs; [8]): +30%
Cardiac frequency, median initial value - value after cumulative dose (circulation of dogs; [8]): 72-93 n.min^-1
Cardiac output, change in percent of initial value (circulation of dogs; [8]): +35%
Cardiac output, median initial value - value after cumulative dose (circulation of dogs; [8]): 138 to 185 mL/min/kg
Diastolic blood pressure, change in percent of initial value (circulation of dogs; [8]): -3%
dp/dt max, change in percent of initial value (circulation of dogs; [8]): +72%
dp/dt max, median initial value - value after cumulative dose (circulation of dogs; [8]): 3834-6590 mm Hg.s^-1
Max, maximum increase in percent in frequency (circulation of dogs; [9]): +30%
Max, maximum increase in percent in inotropy (circulation of dogs; [9]): +72%
LD50 (in vivo): 32000 µg/kg

COc1cccc(C(=O)CCN[C@@H](C)[C@H](O)c2ccccc2)c1.Cl [d-l-Oxyphedrine Hydrochloride, reference compound]
HR, percent change from initial value in heart frequency (cat; D 0.50 mg/kg i.v.): +2%
dp/dt max, percent change from initial value, left ventricle (cat; D 0.50 mg/kg i.v.): +38%
Cardiac frequency, change in percent of initial value (circulation of dogs; [10]): +56%
Cardiac frequency, median initial value - value after cumulative dose (circulation of dogs; [10]): 75-117 n.min^-1
Cardiac output, change in percent of initial value (circulation of dogs; [10]): +65%
Cardiac output, median initial value - value after cumulative dose (circulation of dogs; [10]): 112 to 186 mL/min/kg
Diastolic blood pressure, change in percent of initial value (circulation of dogs; [10]): -13%
dp/dt max, change in percent of initial value (circulation of dogs; [10]): +50%
dp/dt max, median initial value - value after cumulative dose (circulation of dogs; [10]): 3072-4600 mm Hg.s^-1
Max, maximum increase in percent in inotropy (circulation of dogs; dog, at 500 μg/kg, i.v. infusion): +89%
Max, maximum increase in percent in frequency (circulation of dogs; dog, at 600 μg/kg, i.v. infusion): +104%
ED30, dosage for 30% increase in frequency (circulation of dogs; dog, i.v. infusion): 130 µg/kg
ED30, dosage for 30% increase in inotropy (circulation of dogs; dog, i.v. infusion): 130 µg/kg
heart's oxygen demand (circulation of dogs; dog): excessive rise in the heart's oxygen demand
peripheral cardiovascular system (circulation of dogs; dog): a dilation of the peripheral cardiovascular system
contractility, cardiac frequency and cardiac output (circulation of dogs): increases in contractility, cardiac frequency and cardiac output
LD50 (rats): 26000 µg/kg

CC(C)NCC(O)c1ccc(O)c(O)c1 (stereo not drawn) [Isoprenaline-Sulphate, reference compound]
ED30 (circulation of dogs; [1]): 0.06 µg/kg
Cardiac frequency, change in percent of initial value (circulation of dogs; [11]): +51%
Cardiac frequency, median initial value - value after dose (circulation of dogs; [11]): 76-115 n.min^-1
Cardiac output, change in percent of initial value (circulation of dogs; [11]): +94%
Cardiac output, median initial value - value after dose (circulation of dogs; [11]): 130 to 253 mL/min/kg
Diastolic blood pressure, change in percent of initial value (circulation of dogs; [11]): -3%
dp/dt max, change in percent of initial value (circulation of dogs; [11]): +64%
dp/dt max, median initial value - value after dose (circulation of dogs; [11]): 3136-5140 mm Hg.s^-1
Max, maximum increase in percent in frequency (circulation of dogs; [12]): +75%
Max, maximum increase in percent in inotropy (circulation of dogs; [12]): +116%
effective period (circulation of dogs; dog): rather brief
heart's oxygen demand (circulation of dogs; dog): excessive rise in the heart's oxygen demand
peripheral cardiovascular system (circulation of dogs; dog): a dilation of the peripheral cardiovascular system
contractility, cardiac frequency and cardiac output (circulation of dogs): increases in contractility, cardiac frequency and cardiac output

OC(CNCCNc1ccccc1Cl)COc1ccccc1 (stereo not drawn) [Example 1, 3-[β-(2-chlorophenylamino)-ethyl]-amino-2-hydroxy-1-phenoxypropane]
HR, percent change from initial value in heart frequency (cat; D 0.01 mg/kg i.v.): +11%
dp/dt max, percent change from initial value, left ventricle (cat; D 0.01 mg/kg i.v.): +59%
ED30 (circulation of dogs; [1]): 20 µg/kg
ED30 (circulation of dogs; [2]): 11 µg/kg
Cardiac frequency, change in percent of initial value (circulation of dogs; [13]): +34%
Cardiac frequency, median initial value - value after cumulative dose (circulation of dogs; [13]): 80-107 n.min^-1
Cardiac output, change in percent of initial value (circulation of dogs; [13]): +69%
Cardiac output, median initial value - value after cumulative dose (circulation of dogs; [13]): 115 to 195 mL/min/kg
Diastolic blood pressure, change in percent of initial value (circulation of dogs; [13]): +2%
Diastolic blood pressure, median initial value - value after cumulative dose (circulation of dogs; [13]): 111-113 mm Hg
dp/dt max, change in percent of initial value (circulation of dogs; [13]): +76%
dp/dt max, median initial value - value after cumulative dose (circulation of dogs; [13]): 3028-5326 mm Hg.s^-1
Max, maximum increase in percent in inotropy (circulation of dogs; [4]): +91%
Max, maximum increase in percent in frequency (circulation of dogs; dog, at 60 μg/kg, i.v. infusion): +37%
LD50 (in vivo): 21000 µg/kg
